Results from publication PMC3444501, “Therapeutic Effects of Astragaloside IV on Myocardial Injuries: Multi-Target Identification and Network Analysis” (PLoS ONE, 2012).

How the values were obtained:
calcineurin (CN) = tested on: T1, calcineurin (CN); test: calcineurin activity kit (RII phosphopeptide, malachite green) in rat VSMCs after 24-h pretreatment; assay type: cell-based
T1 construct: gene Ppp3ca; with calcineurin B (CnB, regulatory subunit)

[1] = target: angiotensin-converting enzyme (ACE) (Homo sapiens, UniProt P12821); test: ACE activity of HUVECs (hippuric acid release from HHL) after 20-min incubation with AGS-IV; assay type: cell-based
Sequence of angiotensin-converting enzyme (ACE) (P12821 30-1306): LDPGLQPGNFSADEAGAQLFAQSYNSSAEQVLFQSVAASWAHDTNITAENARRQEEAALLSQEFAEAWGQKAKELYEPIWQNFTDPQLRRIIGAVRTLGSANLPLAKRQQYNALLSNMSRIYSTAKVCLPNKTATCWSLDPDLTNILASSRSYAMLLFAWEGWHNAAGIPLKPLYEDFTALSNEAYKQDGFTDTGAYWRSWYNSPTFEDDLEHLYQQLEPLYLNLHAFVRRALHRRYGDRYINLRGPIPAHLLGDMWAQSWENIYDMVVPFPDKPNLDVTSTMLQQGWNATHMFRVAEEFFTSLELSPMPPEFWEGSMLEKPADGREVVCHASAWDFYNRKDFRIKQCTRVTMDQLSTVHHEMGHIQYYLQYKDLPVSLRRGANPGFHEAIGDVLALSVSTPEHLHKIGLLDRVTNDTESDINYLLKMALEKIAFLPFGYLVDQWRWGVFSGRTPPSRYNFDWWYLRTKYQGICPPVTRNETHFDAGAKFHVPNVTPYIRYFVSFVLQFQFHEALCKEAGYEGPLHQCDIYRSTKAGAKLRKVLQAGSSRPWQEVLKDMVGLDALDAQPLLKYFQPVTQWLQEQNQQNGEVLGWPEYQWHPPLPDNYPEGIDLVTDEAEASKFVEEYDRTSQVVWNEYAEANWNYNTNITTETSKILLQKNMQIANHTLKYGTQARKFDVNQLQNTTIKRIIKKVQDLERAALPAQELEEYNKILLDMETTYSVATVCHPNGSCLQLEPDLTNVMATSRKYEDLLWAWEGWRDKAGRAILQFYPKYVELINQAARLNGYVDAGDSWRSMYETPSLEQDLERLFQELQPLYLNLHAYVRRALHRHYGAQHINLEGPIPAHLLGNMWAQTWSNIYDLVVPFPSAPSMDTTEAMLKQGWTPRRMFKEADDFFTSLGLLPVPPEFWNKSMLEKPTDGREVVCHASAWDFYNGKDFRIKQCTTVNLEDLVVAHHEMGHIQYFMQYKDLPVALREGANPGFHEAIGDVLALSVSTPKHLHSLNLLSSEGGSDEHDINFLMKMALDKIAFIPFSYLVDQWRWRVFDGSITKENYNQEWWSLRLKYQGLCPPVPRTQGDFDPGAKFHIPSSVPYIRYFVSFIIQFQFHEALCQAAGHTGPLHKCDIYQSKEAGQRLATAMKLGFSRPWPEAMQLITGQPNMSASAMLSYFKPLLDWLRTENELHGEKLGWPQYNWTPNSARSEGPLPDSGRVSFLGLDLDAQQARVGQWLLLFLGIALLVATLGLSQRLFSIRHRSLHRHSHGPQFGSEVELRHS

CC(C)(O)[C@@H]1CC[C@](C)([C@H]2[C@@H](O)C[C@@]3(C)[C@@H]4C[C@H](O[C@@H]5O[C@H](CO)[C@@H](O)[C@H](O)[C@H]5O)[C@H]5C(C)(C)[C@@H](O[C@@H]6OC[C@@H](O)[C@H](O)[C@H]6O)CC[C@@]56C[C@@]46CC[C@]23C)O1 [AGS-IV, Astragaloside IV]
IC50 (calcineurin (CN)): 403 nM
IC50 [1]: 268 nM
